Measured values: PubChem BioAssay AID2060601 (Molecular Pharmacology Branch, DTP, NCI, 2025)

Test system: 874868-142-R-J2-PDC complex spheroids, growth % test/control
Experiment: Anticancer human tumor 874868-142-R-J2-PDC patient-derived head and neck squamous carcinoma cell line growth inhibition [CLK]
Conditions: for IC50: curve of first compound; for viability, T/C: stronger effect = lower value
Outline: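 Multi-cell-type spheroids combined patient-derived tumor cells with HUVEC endothelial cells and human mesenchymal stem cells. Paired agents were dosed in half-log steps down from about clinical Cmax, or from 10 microM where Cmax was unknown.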
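Further: spheroids exposed to the compounds for 7 days.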
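Wherever viability, T/C is given: 100% = DMSO vehicle control viability.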

In the case of `CC1COCCN1c1cc(C2(S(C)(=N)=O)CC2)nc(-c2ccnc3[nH]ccc23)n1` (centres undefined) + CNC(=O)c1ccc(Nc2nc(OC3CCCC3)c3c(-c4ccc5nc(C)oc5c4)c[nH]c3n2)c(OC)c1, the IC50 (second compound 0.0316 µM) is reported as 5960 nM, the IC50 (second compound 0.1 µM) is reported as 2860 nM and the IC50 (second compound 0.316 µM) is reported as 404 nM. For the same molecule, the IC50 (second compound 1 µM) was < 31.6 nM, the IC50 (second compound 3.16 µM) was < 31.6 nM and the IC50 (second compound 10 µM) was < 31.6 nM. It also gave a viability, T/C (second compound 0.0316 µM, first compound 0.0316 µM) of 125%, a viability, T/C (second compound 0.0316 µM, first compound 0.1 µM) of 96.2% and a viability, T/C (second compound 0.0316 µM, first compound 0.316 µM) of 91.9%. It also gave a viability, T/C (second compound 0.0316 µM, first compound 1 µM) of 69.8%, a viability, T/C (second compound 0.0316 µM, first compound 3.16 µM) of 53.9% and a viability, T/C (second compound 0.0316 µM, first compound 10 µM) of 45.9%. The viability, T/C (second compound 0.1 µM, first compound 0.0316 µM) was 101%, the viability, T/C (second compound 0.1 µM, first compound 0.1 µM) was 79.1% and the viability, T/C (second compound 0.1 µM, first compound 0.316 µM) was 73.1%. The viability, T/C (second compound 0.1 µM, first compound 1 µM) was 55%, the viability, T/C (second compound 0.1 µM, first compound 3.16 µM) was 54.8% and the viability, T/C (second compound 0.1 µM, first compound 10 µM) was 39%. It also gave a viability, T/C (second compound 0.316 µM, first compound 0.0316 µM) of 51.2%, a viability, T/C (second compound 0.316 µM, first compound 0.1 µM) of 53.8% and a viability, T/C (second compound 0.316 µM, first compound 0.316 µM) of 53%. It also gave a viability, T/C (second compound 0.316 µM, first compound 1 µM) of 40.2%, a viability, T/C (second compound 0.316 µM, first compound 3.16 µM) of 37.7% and a viability, T/C (second compound 0.316 µM, first compound 10 µM) of 35.6%. It also gave a viability, T/C (second compound 1 µM, first compound 0.0316 µM) of 44.7%, a viability, T/C (second compound 1 µM, first compound 0.1 µM) of 47.6% and a viability, T/C (second compound 1 µM, first compound 0.316 µM) of 50.8%. The viability, T/C (second compound 1 µM, first compound 1 µM) was 35%, the viability, T/C (second compound 1 µM, first compound 3.16 µM) was 21.8% and the viability, T/C (second compound 1 µM, first compound 10 µM) was 23.1%. For the same molecule, the viability, T/C (second compound 3.16 µM, first compound 0.0316 µM) was 42.5%, the viability, T/C (second compound 3.16 µM, first compound 0.1 µM) was 46.5% and the viability, T/C (second compound 3.16 µM, first compound 0.316 µM) was 44.4%. It also gave a viability, T/C (second compound 3.16 µM, first compound 1 µM) of 34.9%, a viability, T/C (second compound 3.16 µM, first compound 3.16 µM) of 34.6% and a viability, T/C (second compound 3.16 µM, first compound 10 µM) of 27.8%. The viability, T/C (second compound 10 µM, first compound 0.0316 µM) was 44.1%, the viability, T/C (second compound 10 µM, first compound 0.1 µM) was 37.9% and the viability, T/C (second compound 10 µM, first compound 0.316 µM) was 41.7%. For the same molecule, the viability, T/C (second compound 10 µM, first compound 1 µM) was 29.6%, the viability, T/C (second compound 10 µM, first compound 3.16 µM) was 26.6% and the viability, T/C (second compound 10 µM, first compound 10 µM) was 17.2%.

For `NC(=O)C(=Cn1cnc(-c2cc(C(F)(F)F)cc(C(F)(F)F)c2)n1)c1cncnc1` + CNC(=O)c1ccc(Nc2nc(OC3CCCC3)c3c(-c4ccc5nc(C)oc5c4)c[nH]c3n2)c(OC)c1, the IC50 (second compound 0.0316 µM) was 31.3 nM, the IC50 (second compound 0.1 µM) was 21.3 nM and the IC50 (second compound 0.316 µM) was < 9.49 nM. For the same molecule, the IC50 (second compound 1 µM) was < 9.49 nM, the IC50 (second compound 3.16 µM) was < 9.49 nM and the IC50 (second compound 10 µM) was < 9.49 nM. For the same molecule, the viability, T/C (second compound 0.0316 µM, first compound 0.00949 µM) was 70.8%, the viability, T/C (second compound 0.0316 µM, first compound 0.03 µM) was 49.3% and the viability, T/C (second compound 0.0316 µM, first compound 0.0949 µM) was 28.2%. It also gave a viability, T/C (second compound 0.0316 µM, first compound 0.3 µM) of 6.41%, a viability, T/C (second compound 0.0316 µM, first compound 0.949 µM) of 4.32% and a viability, T/C (second compound 0.0316 µM, first compound 3 µM) of 4.58%. It also gave a viability, T/C (second compound 0.1 µM, first compound 0.00949 µM) of 66.4%, a viability, T/C (second compound 0.1 µM, first compound 0.03 µM) of 40.8% and a viability, T/C (second compound 0.1 µM, first compound 0.0949 µM) of 27.1%. The viability, T/C (second compound 0.1 µM, first compound 0.3 µM) was 4.57%, the viability, T/C (second compound 0.1 µM, first compound 0.949 µM) was 3.53% and the viability, T/C (second compound 0.1 µM, first compound 3 µM) was 3.49%. It also gave a viability, T/C (second compound 0.316 µM, first compound 0.00949 µM) of 45.8%, a viability, T/C (second compound 0.316 µM, first compound 0.03 µM) of 33.4% and a viability, T/C (second compound 0.316 µM, first compound 0.0949 µM) of 17.1%. For the same molecule, the viability, T/C (second compound 0.316 µM, first compound 0.3 µM) was 2.51%, the viability, T/C (second compound 0.316 µM, first compound 0.949 µM) was 4.77% and the viability, T/C (second compound 0.316 µM, first compound 3 µM) was 2.89%. For the same molecule, the viability, T/C (second compound 1 µM, first compound 0.00949 µM) was 34%, the viability, T/C (second compound 1 µM, first compound 0.03 µM) was 19.8% and the viability, T/C (second compound 1 µM, first compound 0.0949 µM) was 14.9%. It also gave a viability, T/C (second compound 1 µM, first compound 0.3 µM) of 2.12%, a viability, T/C (second compound 1 µM, first compound 0.949 µM) of 1% and a viability, T/C (second compound 1 µM, first compound 3 µM) of 4.53%. The viability, T/C (second compound 3.16 µM, first compound 0.00949 µM) was 35.6%, the viability, T/C (second compound 3.16 µM, first compound 0.03 µM) was 19.2% and the viability, T/C (second compound 3.16 µM, first compound 0.0949 µM) was 12.4%. The viability, T/C (second compound 3.16 µM, first compound 0.3 µM) was 1.32%, the viability, T/C (second compound 3.16 µM, first compound 0.949 µM) was 6.47% and the viability, T/C (second compound 3.16 µM, first compound 3 µM) was 0.18%. It also gave a viability, T/C (second compound 10 µM, first compound 0.00949 µM) of 36%, a viability, T/C (second compound 10 µM, first compound 0.03 µM) of 18.8% and a viability, T/C (second compound 10 µM, first compound 0.0949 µM) of 3.67%. The viability, T/C (second compound 10 µM, first compound 0.3 µM) was 1.02%, the viability, T/C (second compound 10 µM, first compound 0.949 µM) was 3.87% and the viability, T/C (second compound 10 µM, first compound 3 µM) was 4.53%.
